# Results published in publication PMC7904233 (Journal of medicinal chemistry, 2020).
# Where two headings read alike, the source gives them in different places.
# Tests used:
# [1] = test system: pEBOV Zaire (Mayinga variant); experiment: microbe, parasite or virus in culture; format: cell-based, Zaire ebolavirus; details: for IC50: read-out: IC50 (μM) pEBOV
# ER = details: cited from earlier work; for Kd: read-out: Kd for ER
# [2] = test system: infectious EBOV Zaire (Kikwit variant); format: cell-based, Zaire ebolavirus
# pMARV (Musoke variant) = experiment: microbe, parasite or virus in culture; format: cell-based, Marburg virus; details: read-out: IC50 (μM) pMARV
# pTFV = format: cell-based, ebolavirus Tai Forest
# pAIV-H5N1 = format: cell-based, H5N1 avian influenza virus
# pMLAV = format: cell-based, Měnglà virus
# pRESTV = format: cell-based, ebolavirus Reston
# pVSV = format: cell-based, vesicular stomatitis virus
# ERα = format: cell-based, human
# [3] = test system: infectious MARV (Angola variant); format: cell-based, Marburg virus
# [4] = Human immunodeficiency virus 1, A549, 48 h
compound,measurement,setting,value
"CN(C)CCOc1ccc(/C(=C(/CCCl)c2ccccc2)c2ccccc2)cc1 [Compound 1, Toremifene]",IC50,[1]; [4],< 0.1 µM
"CC/C(=C(\c1ccccc1)c1ccc(OCCN(C)C)cc1)c1ccccc1 [Compound 5, Tamoxifen]",ER affinity,ER,13.8 nM
"COc1ccc2c(c1)CCC(c1ccccc1)=C2c1ccc(OCCN2CCCC2)cc1 [Compound 6, Nafoxidine]",IC50,[1]; [4],0.1 ± 0.009 µM
"Cc1c(-c2ccc(O)cc2)nn(-c2ccc(O)cc2)c1-c1ccc(OCCN2CCCCC2)cc1 [Compound 23, MPP]",Kd,ER,0.0018 µM
"CC/C(=C(/c1ccc(N)cc1)c1ccc(OCCN2CCCC2)cc1)c1ccccc1 [Compound 27, (E)-4-(2-phenyl-1-(4-(2-(pyrrolidin-1-yl)ethoxy)phenyl)but-1-en-1-yl)aniline]",fold weaker than 9,[2],10 fold
"CC/C(=C(/c1ccc(NCCN2CCCC2)cc1)c1ccc(OCCN2CCCC2)cc1)c1ccccc1 [Compound 28, (E)-4-(2-phenyl-1-(4-(2-(pyrrolidin-1-yl)ethoxy)phenyl)but-1-en-1-yl)-N-(2-(pyrrolidin-1-yl)ethyl)aniline]",IC50,pMARV (Musoke variant); [4],> 12.5 µM
"CC/C(=C(/c1ccc(NC(=O)C2CCN(C)C2)cc1)c1ccc(OCCN2CCCC2)cc1)c1ccccc1 (stereo not drawn) [Compound 32, (E)-1-methyl-N-(4-(2-phenyl-1-(4-(2-(pyrrolidin-1-yl)ethoxy)phenyl)but-1-en-1-yl)phenyl)pyrrolidine-3-carboxamide]",inhibition of viral entry (in words),pTFV,improved potency
same,inhibition of pAIV-H5N1 (in words),pAIV-H5N1,Neither compounds showed appreciable inhibition
same,inhibition of viral entry (in words),pMLAV,improved potency
same,inhibition of viral entry (in words),pRESTV,improved potency
same,inhibition of pVSV (in words),pVSV,Neither compounds showed appreciable inhibition
same,antagonist activity at ER (in words),ERα,no antagonist activity
(E)-1-methyl-N-(4-(2-phenyl-1-(4-(2-(pyrrolidin-1-yl)ethoxy)phenyl)but-1-en-1-yl)phenyl)piperidine-4-carboxamide [Compound 30],fold more potent than 1,[3],6 fold
same,IC50,[3]; read-out: IC50 (μM) MARV,0.64 ± 0.12 µM
same,IC50,[1],0.01 ± 0.005 µM
same,inhibition of viral entry (in words),pTFV,improved potency
same,inhibition of pAIV-H5N1 (in words),pAIV-H5N1,Neither compounds showed appreciable inhibition
same,IC50,pMARV (Musoke variant),0.54 ± 0.05 µM
same,fold more potent than 1,[2],10 fold
same,IC50,[2]; read-out: IC50 (μM) EBOV,0.09 ± 0.03 µM
same,inhibition of viral entry (in words),pMLAV,improved potency
same,inhibition of viral entry (in words),pRESTV,improved potency
same,inhibition of pVSV (in words),pVSV,Neither compounds showed appreciable inhibition
same,antagonist activity at ER (in words),ERα,no antagonist activity
Acolbifene [Compound 10],fold weaker than 1,[1],more than 20 fold
same,IC50,[1],1.5 ± 0.3 µM
